pEC50, pIC50: −log10 of the molar value.
How the values were obtained:
in vitro [1] = conditions: human, CRL8155 human lymphocyte cells
in vitro [2] = conditions: human, HCC2998 (HC 2998) colorectal carcinoma cells
in vitro [3] = conditions: human, HL-60 human promyelocytic leukemia cells
in vitro [4] = conditions: human, SF539 glioma-derived cells
TgCDPK1 = TgCDPK1 (Toxoplasma gondii, UniProt Q9BJF5); format: biochemical
human fibroblast = assay: Fibroblast cytotoxicity / replication (Alamar blue); format: cell-based; conditions: concentration at which toxicity (T) was observed

TgCDPK1, sequence (Q9BJF5 1-507): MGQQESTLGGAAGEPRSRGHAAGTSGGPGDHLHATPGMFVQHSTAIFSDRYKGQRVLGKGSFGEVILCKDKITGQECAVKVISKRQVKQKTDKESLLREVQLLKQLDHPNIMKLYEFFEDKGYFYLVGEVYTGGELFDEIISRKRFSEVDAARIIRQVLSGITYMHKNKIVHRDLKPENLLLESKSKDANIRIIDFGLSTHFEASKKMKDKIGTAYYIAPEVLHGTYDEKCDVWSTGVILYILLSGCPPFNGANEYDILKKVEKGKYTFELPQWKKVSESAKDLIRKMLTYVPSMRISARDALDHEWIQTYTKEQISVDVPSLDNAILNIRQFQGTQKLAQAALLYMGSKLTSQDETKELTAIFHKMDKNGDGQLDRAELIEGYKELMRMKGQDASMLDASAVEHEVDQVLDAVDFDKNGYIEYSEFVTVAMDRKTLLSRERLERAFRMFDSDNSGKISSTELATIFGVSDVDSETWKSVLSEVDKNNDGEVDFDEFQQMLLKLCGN

CC(C)n1nc(-c2ccc3ccccc3c2)c2c(N)ncnc21 [Compound 7p, 1-isopropyl-3-(naphthalen-2-yl)-1H-pyrazolo[3,4-d]pyrimidin-4-amine]
GI50 (in vitro [1]): > 10 µM | GI50 (in vitro [2]): ~10 µM | GI50 (in vitro [3]): > 10 µM | GI50 (in vitro [4]): > 10 µM

Cc1cc(-c2nn(C(C)C)c3ncnc(N)c23)ccc1F [Compound 7i, 3-(4-fluoro-3-methylphenyl)-1-isopropyl-1H-pyrazolo[3,4-d]pyrimidin-4-amine]
inhibition of TgCDPK1 (in words) (TgCDPK1): potent against both enzymes

Nc1ncnc2c1c(Cc1cccc3ccccc13)nn2CC1CCNCC1 [Compound 5h, 3-(naphthalen-1-ylmethyl)-1-(piperidin-4-ylmethyl)-1H-pyrazolo[3,4-d]pyrimidin-4-amine]
GI50 (in vitro [1]): > 10 µM | GI50 (in vitro [2]): > 10 µM | GI50 (in vitro [3]): > 10 µM | GI50 (in vitro [4]): > 10 µM

COc1ccc(-c2nn(C(C)C)c3ncnc(N)c23)cc1OC [Compound 7k, 3-(3,4-dimethoxyphenyl)-1-isopropyl-1H-pyrazolo[3,4-d]pyrimidin-4-amine]
inhibition of TgCDPK1 (in words) (TgCDPK1): potent against both enzymes

CCCCOc1ccc2cc(-c3nn(C(C)C)c4ncnc(N)c34)ccc2c1 [Compound 42, 3-(6-butoxynaphthalen-2-yl)-1-isopropyl-1H-pyrazolo[3,4-d]pyrimidin-4-amine]
Observed HFF Toxicity (T at concentration) (human fibroblast): T at 100 μM

CC(C)c1ccc(-c2nn(C(C)C)c3ncnc(N)c23)cc1 [Compound 7d, 1-isopropyl-3-(4-isopropylphenyl)-1H-pyrazolo[3,4-d]pyrimidin-4-amine]
selectivity TgCDPK1 versus CpCDPK1 (in words) (TgCDPK1): more potent against TgCDPK1 than CpCDPK1

CC(C)(C)n1nc(Cc2cccc3ccccc23)c2c(N)ncnc21 [Compound 5d, 1-tert-butyl-3-(naphthalen-1-ylmethyl)-1H-pyrazolo[3,4-d]pyrimidin-4-amine]
GI50 (in vitro [1]): > 10 µM | GI50 (in vitro [2]): > 10 µM | GI50 (in vitro [3]): > 10 µM | GI50 (in vitro [4]): > 10 µM

CC(C)COc1ccc2cc(-c3nn(CC4CCNCC4)c4ncnc(N)c34)ccc2c1 [Compound 44, 3-(6-isobutoxynaphthalen-2-yl)-1-(piperidin-4-ylmethyl)-1H-pyrazolo[3,4-d]pyrimidin-4-amine]
Observed HFF Toxicity (T at concentration) (human fibroblast): T at 100 μM

CC(C)n1nc(Cc2cccc3ccccc23)c2c(N)ncnc21 [Compound 3, 1-isopropyl-3-(naphthalen-1-ylmethyl)-1H-pyrazolo[3,4-d]pyrimidin-4-amine]
GI50 (in vitro [1]): […] | GI50 (in vitro [2]): > 10 µM | GI50 (in vitro [3]): > 10 µM | GI50 (in vitro [4]): > 10 µM

Nc1ncnc2c1c(-c1ccc3cc(OCc4cccc(Cl)c4)ccc3c1)nn2CC1CCNCC1 [Compound 38, 3-(6-(3-chlorobenzyloxy)naphthalen-2-yl)-1-(piperidin-4-ylmethyl)-1H-pyrazolo[3,4-d]pyrimidin-4-amine]
Observed HFF Toxicity (T at concentration) (human fibroblast): T at 100 μM

CC(C)n1nc(-c2cnc3ccccc3c2)c2c(N)ncnc21 [Compound 7t, 1-isopropyl-3-(quinolin-3-yl)-1H-pyrazolo[3,4-d]pyrimidin-4-amine]
GI50 (in vitro [1]): > 10 µM | GI50 (in vitro [2]): > 10 µM | GI50 (in vitro [3]): […] | GI50 (in vitro [4]): > 10 µM

[Ca+2].[Cl-].[Cl-] [CaCl2]
free CaCl2 at maximal activity (TgCDPK1): approximately 18 μM

COc1ccc(-c2nn(C(C)C)c3ncnc(N)c23)cc1C [Compound 7m, 1-isopropyl-3-(4-methoxy-3-methylphenyl)-1H-pyrazolo[3,4-d]pyrimidin-4-amine]
inhibition of TgCDPK1 (in words) (TgCDPK1): potent against both enzymes

CC(C)n1nc(-c2cccc(Cl)c2)c2c(N)ncnc21 [Compound 7b, 3-(3-chlorophenyl)-1-isopropyl-1H-pyrazolo[3,4-d]pyrimidin-4-amine]
selectivity TgCDPK1 versus CpCDPK1 (in words) (TgCDPK1): more potent against TgCDPK1 than CpCDPK1

Nc1ncnc2c1c(-c1ccc3oc(-c4ccccc4)nc3c1)nn2CC1CCNCC1 [Compound 120]
Observed HFF Toxicity (T at concentration) (human fibroblast): T at 25 μM

Nc1ncnc2c1c(-c1ccc3cc(OCc4ccccc4Cl)ccc3c1)nn2CC1CCNCC1 [Compound 37, 3-(6-(2-chlorobenzyloxy)naphthalen-2-yl)-1-(piperidin-4-ylmethyl)-1H-pyrazolo[3,4-d]pyrimidin-4-amine]
Observed HFF Toxicity (T at concentration) (human fibroblast): T at 100 μM

Nc1ncnc2c1c(-c1ccc3cc(OCc4ccccc4)ccc3c1)nn2CC1CCNCC1 [Compound 34, 3-(6-(benzyloxy)naphthalen-2-yl)-1-(piperidin-4-ylmethyl)-1H-pyrazolo[3,4-d]pyrimidin-4-amine]
Observed HFF Toxicity (T at concentration) (human fibroblast): T at 100 μM

C=CCOc1ccc2cc(-c3nn(CC4CCNCC4)c4ncnc(N)c34)ccc2c1 [Compound 36, 3-(6-(allyloxy)naphthalen-2-yl)-1-(piperidin-4-ylmethyl)-1H-pyrazolo[3,4-d]pyrimidin-4-amine]
Observed HFF Toxicity (T at concentration) (human fibroblast): T at 100 μM

CC(C)n1nc(-c2ccc(Cl)cc2)c2c(N)ncnc21 [Compound 7a, 3-(4-chlorophenyl)-1-isopropyl-1H-pyrazolo[3,4-d]pyrimidin-4-amine]
selectivity TgCDPK1 versus CpCDPK1 (in words) (TgCDPK1): more potent against TgCDPK1 than CpCDPK1

[Ca+2] [calcium]
pEC50 (TgCDPK1; read-out: calcium concentration giving 50% of TgCDPK1 kinase activity): 5.33

CC(C)n1nc(-c2ccc3cc(OCc4ccccc4)ccc3c2)c2c(N)ncnc21 [Compound 40, 3-(6-(benzyloxy)naphthalen-2-yl)-1-isopropyl-1H-pyrazolo[3,4-d]pyrimidin-4-amine]
Observed HFF Toxicity (T at concentration) (human fibroblast): T at 100 μM

CCN1CCC(Cn2nc(Cc3cccc4ccccc34)c3c(N)ncnc32)CC1 [Compound 5n, 1-((1-ethylpiperidin-4-yl)methyl)-3-(naphthalen-1-ylmethyl)-1H-pyrazolo[3,4-d]pyrimidin-4-amine]
GI50 (in vitro [1]): > 10 µM | GI50 (in vitro [2]): > 10 µM | GI50 (in vitro [3]): > 10 µM | GI50 (in vitro [4]): […]

COc1cc(-c2nn(C(C)C)c3ncnc(N)c23)cc(OC)c1OC [Compound 7l, 1-isopropyl-3-(3,4,5-trimethoxyphenyl)-1H-pyrazolo[3,4-d]pyrimidin-4-amine]
selectivity TgCDPK1 versus CpCDPK1 (in words) (TgCDPK1): equipotent or slightly selective for CpCDPK1

C#CCn1nc(Cc2cccc3ccccc23)c2c(N)ncnc21 [Compound 5b, 3-(naphthalen-1-ylmethyl)-1-(prop-2-ynyl)-1H-pyrazolo[3,4-d]pyrimidin-4-amine]
pIC50 (TgCDPK1): 6.00

CCOc1ccc2cc(-c3nc(C(C)(C)C)n4ccnc(N)c34)ccc2c1 [Compound 69, 3-tert-butyl-1-(6-ethoxynaphthalen-2-yl)imidazo[1,5-a]pyrazin-8-amine]
Observed HFF Toxicity (T at concentration) (human fibroblast): T at 25 μM

CSc1cccc(-c2nn(C(C)C)c3ncnc(N)c23)c1 [Compound 7ab, 1-isopropyl-3-(3-(methylthio)phenyl)-1H-pyrazolo[3,4-d]pyrimidin-4-amine]
selectivity TgCDPK1 versus CpCDPK1 (in words) (TgCDPK1): more potent against TgCDPK1 than CpCDPK1

CCCOc1ccc2cc(-c3nn(CC4CCNCC4)c4ncnc(N)c34)ccc2c1 [Compound 33, 1-(piperidin-4-ylmethyl)-3-(6-propoxynaphthalen-2-yl)-1H-pyrazolo[3,4-d]pyrimidin-4-amine]
Observed HFF Toxicity (T at concentration) (human fibroblast): T at 100 μM

C=CCOc1ccc2cc(-c3nn(C(C)C)c4ncnc(N)c34)ccc2c1 [Compound 41, 3-(6-(allyloxy)naphthalen-2-yl)-1-isopropyl-1H-pyrazolo[3,4-d]pyrimidin-4-amine]
Observed HFF Toxicity (T at concentration) (human fibroblast): T at 100 μM
